Assay results taken from patent publication US8952163B2, “Substituted hydroxamic acids and uses thereof” (Millennium Pharmaceuticals, Inc., priority 2010, dated 2015).

Biological target: T1, purified human HDAC6 (Homo sapiens, UniProt Q9UBN7)
T1 construct: purchased BPS Bioscience 5006
T1 sequence (Q9UBN7 1-1215): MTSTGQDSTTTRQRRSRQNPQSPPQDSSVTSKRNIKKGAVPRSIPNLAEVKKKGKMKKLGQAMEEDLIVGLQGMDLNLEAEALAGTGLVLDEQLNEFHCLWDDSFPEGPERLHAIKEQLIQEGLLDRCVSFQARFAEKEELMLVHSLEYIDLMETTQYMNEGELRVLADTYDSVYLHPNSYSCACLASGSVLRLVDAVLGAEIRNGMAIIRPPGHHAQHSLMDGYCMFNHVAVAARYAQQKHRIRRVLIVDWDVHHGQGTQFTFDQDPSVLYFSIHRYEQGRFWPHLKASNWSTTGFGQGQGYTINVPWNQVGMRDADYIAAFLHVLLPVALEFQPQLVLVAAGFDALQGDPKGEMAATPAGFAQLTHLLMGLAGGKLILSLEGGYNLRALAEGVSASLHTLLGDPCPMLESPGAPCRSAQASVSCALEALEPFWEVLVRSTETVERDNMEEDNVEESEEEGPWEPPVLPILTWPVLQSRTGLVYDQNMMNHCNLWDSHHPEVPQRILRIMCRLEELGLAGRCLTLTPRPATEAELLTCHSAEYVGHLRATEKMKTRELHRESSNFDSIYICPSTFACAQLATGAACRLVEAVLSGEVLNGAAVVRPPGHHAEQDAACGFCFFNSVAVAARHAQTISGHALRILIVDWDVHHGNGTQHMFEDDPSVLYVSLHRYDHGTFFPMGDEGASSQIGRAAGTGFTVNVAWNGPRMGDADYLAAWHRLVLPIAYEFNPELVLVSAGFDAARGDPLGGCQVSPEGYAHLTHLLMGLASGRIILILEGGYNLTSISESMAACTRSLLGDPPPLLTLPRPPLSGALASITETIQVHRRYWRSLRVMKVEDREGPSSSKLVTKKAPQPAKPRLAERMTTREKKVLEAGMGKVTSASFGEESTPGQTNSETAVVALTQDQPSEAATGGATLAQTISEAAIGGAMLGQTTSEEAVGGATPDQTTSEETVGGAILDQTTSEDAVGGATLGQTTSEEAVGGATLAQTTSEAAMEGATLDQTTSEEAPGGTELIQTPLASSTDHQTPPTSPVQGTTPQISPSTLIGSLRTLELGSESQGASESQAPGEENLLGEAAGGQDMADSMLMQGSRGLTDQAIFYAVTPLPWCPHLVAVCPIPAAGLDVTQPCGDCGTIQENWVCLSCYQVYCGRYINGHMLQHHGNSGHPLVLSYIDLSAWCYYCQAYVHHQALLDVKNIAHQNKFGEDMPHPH
Assay: HDAC6 Enzyme Assay
Format: biochemical
Details: test compound at 1.235 μM; substrate Ac-Arg-Gly-Lys(Ac)-AMC, 1 hour at 30° C.; read-out: Percent Inhibition at 1.235 μM
Experimental: To measure the inhibition of HDAC6 activity, purified human HDAC6 (BPS Bioscience; Cat. No. 5006) is incubated with substrate Ac-Arg-Gly-Lys(Ac)-AMC peptide (Bachem Biosciences; Cat. No. I-1925) for 1 hour at 30° C. in the presence of test compounds or vehicle DMSO control. The reaction is stopped with the HDAC inhibitor trichostatin A (Sigma; Cat. No. T8552) and the amount of Arg-Gly-Lys-AMC generated is quantitated by digestion with trypsin (Sigma; Cat. No. T1426) and subsequent measurement of the amount of AMC released using a fluorescent plate reader (Pherastar, BMG Technologies) set at Ex 340 nm and Em 460 nm. Concentration response curves are generated by calculating the fluorescence increase in test compound-treated samples relative to DMSO-treated controls, and percentage inhibition values at a single concentration or enzyme inhibition (IC50) values are determined from those curves. One skilled in the art will appreciate that the values generated either as percentage inhibition at a single concentration or IC50 values are subject to experimental variation.

| inhibition at 1.235 µM | SMILES |
| --- | --- |
| 34.1% | CC(=O)N1CCc2nc(C(=O)NO)ccc2C1 [Compound I-2, 6-acetyl-N-hydroxy-5,6,7,8-tetrahydro-1,6-naphthyridine-2-carboxamide] |
| 48.2% | O=C(NO)c1ccc2c(n1)CCN(C(=O)Nc1ccccc1-c1ccccc1)C2 [Compound I-34, N^6-biphenyl-2-yl-N^2-hydroxy-7,8-dihydro-1,6-naphthyridine-2,6(5H)-dicarboxamide] |
| 95.2% | CC1(C(=O)N2CCc3cc(C(=O)NO)cnc3C2)CCCCC1 [Compound I-9, N-hydroxy-7-[(1-methylcyclohexyl)carbonyl]-5,6,7,8-tetrahydro-1,7-naphthyridine-3-carboxamide] |
| 90.2% | O=C(NO)c1ccc2c(n1)CCN(C(=O)C13CC4CC(CC(C4)C1)C3)C2 [Compound I-22, 6-[1-adamantylcarbonyl]-N-hydroxy-5,6,7,8-tetrahydro-1,6-naphthyridine-2-carboxamide] |
| 79.5% | CC1(C(=O)N2CCc3nc(C(=O)NO)ccc3C2)CCCCC1 [Compound I-19, N-hydroxy-6-[(1-methylcyclohexyl)carbonyl]-5,6,7,8-tetrahydro-1,6-naphthyridine-2-carboxamide] |
| 68.8% | O=C(NO)c1ccc2c(n1)CCN(C(=O)c1ccc(Cl)cc1)C2 [Compound I-33, 6-(4-chlorobenzoyl)-N-hydroxy-5,6,7,8-tetrahydro-1,6-naphthyridine-2-carboxamide] |
| 23.4% | Cc1onc(-c2ccccc2)c1NC(=O)N1CCc2nc(C(=O)NO)ccc2C1 [Compound I-43, N^2-hydroxy-N^6-(5-methyl-3-phenylisoxazol-4-yl)-7,8-dihydro-1,6-naphthyridine-2,6(5H)-dicarboxamide] |
| 34.3% | CCc1cccc(CC)c1NC(=O)N1CCc2nc(C(=O)NO)ccc2C1 [Compound I-47, N^6-(2,6-diethylphenyl)-N^2-hydroxy-7,8-dihydro-1,6-naphthyridine-2,6(5H)-dicarboxamide] |
| 58.3% | O=C(NO)c1ccc2c(n1)CCN(C(=O)NCCc1ccccc1)C2 [Compound I-55, N^2-hydroxy-N^6-(2-phenylethyl)-7,8-dihydro-1,6-naphthyridine-2,6(5H)-dicarboxamide] |
| 41.2% | O=C(NO)c1ccc2c(n1)CCN(C(=O)NC1CCCCC1)C2 [Compound I-17, N^6-cyclohexyl-N^2-hydroxy-7,8-dihydro-1,6-naphthyridine-2,6(5H)-dicarboxamide] |
| 67.2% | O=C(NO)c1ccc2c(n1)CCN(C(=O)Nc1ccc(-c3ccccc3)s1)C2 [Compound I-54, N^2-hydroxy-N^6-(5-phenyl-2-thienyl)-7,8-dihydro-1,6-naphthyridine-2,6(5H)-dicarboxamide] |
| 94.1% | O=C(NO)c1ccc2c(n1)CCN(C(=O)c1cc3ccccc3s1)C2 [Compound I-49, 6-(1-benzothien-2-ylcarbonyl)-N-hydroxy-5,6,7,8-tetrahydro-1,6-naphthyridine-2-carboxamide] |
| 59% | CC(C)(C)C(=O)N1CCc2nc(C(=O)NO)ccc2C1 [Compound I-46, 6-(2,2-dimethylpropanoyl)-N-hydroxy-5,6,7,8-tetrahydro-1,6-naphthyridine-2-carboxamide] |
| 70.6% | O=C(NO)c1ccc2c(n1)CCN(C(=O)NC13CC4CC(CC(C4)C1)C3)C2 [Compound I-13, N^6-[1-adamantyl]-N^2-hydroxy-7,8-dihydro-1,6-naphthyridine-2,6(5H)-dicarboxamide] |

More lines, now with the values behind:

| SMILES | inhibition at 1.235 µM |
| --- | --- |
| O=C(NO)c1cnc2c(c1)CCN(C(=O)C13CC4CC(CC(C4)C1)C3)C2 [Compound I-15, 7-[1-adamantylcarbonyl]-N-hydroxy-5,6,7,8-tetrahydro-1,7-naphthyridine-3-carboxamide] | 95.6% |
| Cn1cccc1C(=O)N1CCc2cc(C(=O)NO)cnc2C1 [Compound I-24, N-hydroxy-7-[(1-methyl-1H-pyrrol-2-yl)carbonyl]-5,6,7,8-tetrahydro-1,7-naphthyridine-3-carboxamide] | 92.3% |
| CC(C)(C)c1ccc(C(=O)N2CCc3cc(C(=O)NO)cnc3C2)cc1 [Compound I-41, 7-(4-tert-butylbenzoyl)-N-hydroxy-5,6,7,8-tetrahydro-1,7-naphthyridine-3-carboxamide] | 93.4% |
| O=C(NO)c1cnc2c(c1)CN(C(=O)C13CC4CC(CC(C4)C1)C3)CC2 [Compound I-31, 6-[1-adamantylcarbonyl]-N-hydroxy-5,6,7,8-tetrahydro-1,6-naphthyridine-3-carboxamide] | 93.8% |
| O=C(NO)c1cnc2c(c1)CN(Cc1ccccc1)CC2 [Compound I-20, 6-benzyl-N-hydroxy-5,6,7,8-tetrahydro-1,6-naphthyridine-3-carboxamide] | 58.6% |
| O=C(NO)c1cnc2c(c1)CCN(C(=O)C13CC4CC(CC(O)(C4)C1)C3)C2 [Compound I-26, N-hydroxy-7-[(3-hydroxy-1-adamantyl)carbonyl]-5,6,7,8-tetrahydro-1,7-naphthyridine-3-carboxamide] | 94% |
| O=C(NO)c1cnc2c(c1)CN(C(=O)c1[nH]c3ccccc3c1-c1ccccc1)CC2 [Compound I-29, N-hydroxy-6-[(3-phenyl-1H-indol-2-yl)carbonyl]-5,6,7,8-tetrahydro-1,6-naphthyridine-3-carboxamide] | 97.8% |
| CC(=O)N1CCc2cc(C(=O)NO)cnc2C1 [Compound I-21, 7-acetyl-N-hydroxy-5,6,7,8-tetrahydro-1,7-naphthyridine-3-carboxamide] | 73.9% |
| O=C(NO)c1ccc2c(n1)CCN(S(=O)(=O)c1ccc(C(F)(F)F)cc1)C2 [Compound I-59, N-hydroxy-6-{[4-(trifluoromethyl)phenyl]sulfonyl}-5,6,7,8-tetrahydro-1,6-naphthyridine-2-carboxamide] | 67.4% |
| O=C(NO)c1cnc2c(c1)CCN(C(=O)c1[nH]c3ccccc3c1-c1ccccc1)C2 [Compound I-37, N-hydroxy-7-[(3-phenyl-1H-indol-2-yl)carbonyl]-5,6,7,8-tetrahydro-1,7-naphthyridine-3-carboxamide] | 93.7% |
| O=C(NO)c1ccc2c(n1)CCN(Cc1ccccc1)C2 [Compound I-38, 6-benzyl-N-hydroxy-5,6,7,8-tetrahydro-1,6-naphthyridine-2-carboxamide] | 60.2% |
| CC(C)(C)OC(=O)N1CCc2cc(C(=O)NO)cnc2C1 [Compound I-3, tert-butyl 3-[(hydroxyamino)carbonyl]-5,8-dihydro-1,7-naphthyridine-7(6H)-carboxylate] | 95.3% |
| Cc1nc(-c2ccccn2)sc1C(=O)N1CCc2ncc(C(=O)NO)cc2C1 [Compound I-23, N-hydroxy-6-[(4-methyl-2-pyridin-2-yl-1,3-thiazol-5-yl)carbonyl]-5,6,7,8-tetrahydro-1,6-naphthyridine-3-carboxamide] | 92% |
| CCCCOc1ccc(S(=O)(=O)N2CCc3ncc(C(=O)NO)cc3C2)cc1 [Compound I-57, 6-[(4-butoxyphenyl)sulfonyl]-N-hydroxy-5,6,7,8-tetrahydro-1,6-naphthyridine-3-carboxamide] | 94.1% |
| CC(C)(C)c1ccc(C(=O)N2CCc3ncc(C(=O)NO)cc3C2)cc1 [Compound I-50, 6-(4-tert-butylbenzoyl)-N-hydroxy-5,6,7,8-tetrahydro-1,6-naphthyridine-3-carboxamide] | 95.1% |
